Assay results published in the kinase profiling compilation of Christmann-Franck et al. (2016).

Key:
Experiment in all cases: KINOMEscan competition binding
Details in all cases: compound 10.0 µM
GSK3A (human) = GSK3A (human) (UniProt P49840)
SRPK2 (human) = SRPK2 (human) (UniProt P78362)
YES1 (human) = YES1 (human) (UniProt P07947)
MAPK9 (human) = MAPK9 (human) (UniProt P45984)
NEK5 (human) = NEK5 (human) (UniProt Q6P3R8)
CAMKK2 (human) = CAMKK2 (human) (UniProt Q96RR4)
MAP2K3 (human) = MAP2K3 (human) (UniProt P46734)
EPHA4 (human) = EPHA4 (human) (UniProt P54764)
CHUK (human) = CHUK (human) (UniProt O15111)
EPHA2 (human) = EPHA2 (human) (UniProt P29317)
[1] = biological target: TYK2 JH2 pseudokinase (human) (UniProt P29597)
MARK2 (human) = MARK2 (human) (UniProt Q7KZI7)
ACVR1B (human) = ACVR1B (human) (UniProt P36896)
MAP3K5 (human) = MAP3K5 (human) (UniProt Q99683)
MAP3K3 (human) = MAP3K3 (human) (UniProt Q99759)
CHEK2 (human) = CHEK2 (human) (UniProt O96017)
ACVR2B (human) = ACVR2B (human) (UniProt Q13705)
PIP5K1A (human) = PIP5K1A (human) (UniProt Q99755)
LTK (human) = LTK (human) (UniProt P29376)
STK36 (human) = STK36 (human) (UniProt Q9NRP7)
SIK1 (human) = SIK1 (human) (UniProt P57059)
MAPK11 (human) = MAPK11 (human) (UniProt Q15759)
STK17B (human) = STK17B (human) (UniProt O94768)
MAP2K1 (human) = MAP2K1 (human) (UniProt Q02750)
SYK (human) = SYK (human) (UniProt P43405)
SGK110 (human) = SGK110 (human) (UniProt P0C264)
ROCK2 (human) = ROCK2 (human) (UniProt O75116)
PRKX (human) = PRKX (human) (UniProt P51817)
RPS6KA5 KD1 (human) = RPS6KA5 KD1 (human) (UniProt O75582)
FYN (human) = FYN (human) (UniProt P06241)
PAK2 (human) = PAK2 (human) (UniProt Q13177)
CDK19 (human) = CDK19 (human) (UniProt Q9BWU1)
PRKD2 (human) = PRKD2 (human) (UniProt Q9BZL6)
CLK2 (human) = CLK2 (human) (UniProt P49760)
IKBKE (human) = IKBKE (human) (UniProt Q14164)
MAPK3 (human) = MAPK3 (human) (UniProt P27361)
CDK3 (human) = CDK3 (human) (UniProt Q00526)
KDR (human) = KDR (human) (UniProt P35968)
TESK1 (human) = TESK1 (human) (UniProt Q15569)
ALK (human) = ALK (human) (UniProt Q9UM73)
ALK (human), sequence (Q9UM73 whole entry, looked up): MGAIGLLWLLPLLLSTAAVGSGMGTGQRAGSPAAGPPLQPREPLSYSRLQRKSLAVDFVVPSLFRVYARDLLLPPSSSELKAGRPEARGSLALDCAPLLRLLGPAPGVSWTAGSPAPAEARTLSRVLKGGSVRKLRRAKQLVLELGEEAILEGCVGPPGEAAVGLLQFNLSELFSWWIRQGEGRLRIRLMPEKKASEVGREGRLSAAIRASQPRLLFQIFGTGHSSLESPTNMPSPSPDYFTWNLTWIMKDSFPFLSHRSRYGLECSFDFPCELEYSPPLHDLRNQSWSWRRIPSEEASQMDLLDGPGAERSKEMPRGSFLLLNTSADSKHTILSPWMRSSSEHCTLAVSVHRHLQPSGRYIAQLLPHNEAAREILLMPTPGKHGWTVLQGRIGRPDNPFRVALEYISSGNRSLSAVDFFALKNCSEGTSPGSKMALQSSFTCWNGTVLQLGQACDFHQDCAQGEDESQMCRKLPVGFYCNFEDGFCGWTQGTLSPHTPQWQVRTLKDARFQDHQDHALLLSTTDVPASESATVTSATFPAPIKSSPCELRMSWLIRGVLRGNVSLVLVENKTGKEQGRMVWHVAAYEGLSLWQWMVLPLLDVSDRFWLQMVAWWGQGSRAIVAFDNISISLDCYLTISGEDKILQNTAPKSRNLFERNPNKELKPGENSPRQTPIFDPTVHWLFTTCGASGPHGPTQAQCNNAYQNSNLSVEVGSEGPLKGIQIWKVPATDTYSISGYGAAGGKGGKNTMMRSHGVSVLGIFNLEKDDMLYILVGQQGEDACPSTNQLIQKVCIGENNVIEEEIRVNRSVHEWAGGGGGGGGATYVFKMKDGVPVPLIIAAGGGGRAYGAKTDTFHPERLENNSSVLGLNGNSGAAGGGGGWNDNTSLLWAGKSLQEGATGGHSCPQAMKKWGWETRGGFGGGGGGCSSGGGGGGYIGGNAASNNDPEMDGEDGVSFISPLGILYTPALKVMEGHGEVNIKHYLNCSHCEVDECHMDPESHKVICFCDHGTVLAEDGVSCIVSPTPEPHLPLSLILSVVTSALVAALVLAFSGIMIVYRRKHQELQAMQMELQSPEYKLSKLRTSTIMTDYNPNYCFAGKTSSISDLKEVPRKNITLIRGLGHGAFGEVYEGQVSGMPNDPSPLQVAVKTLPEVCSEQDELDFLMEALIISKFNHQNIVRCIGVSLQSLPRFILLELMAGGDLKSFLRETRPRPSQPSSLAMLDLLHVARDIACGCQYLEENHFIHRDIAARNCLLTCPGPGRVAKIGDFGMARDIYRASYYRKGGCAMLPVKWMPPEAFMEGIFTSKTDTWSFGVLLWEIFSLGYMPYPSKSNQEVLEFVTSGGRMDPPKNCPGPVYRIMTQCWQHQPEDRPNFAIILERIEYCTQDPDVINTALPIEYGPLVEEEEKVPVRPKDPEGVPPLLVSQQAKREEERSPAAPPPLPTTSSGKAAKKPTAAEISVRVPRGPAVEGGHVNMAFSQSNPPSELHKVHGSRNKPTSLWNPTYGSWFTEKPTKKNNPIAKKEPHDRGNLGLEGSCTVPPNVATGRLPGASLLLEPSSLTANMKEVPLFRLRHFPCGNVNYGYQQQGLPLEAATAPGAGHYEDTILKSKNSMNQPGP

LTK (human), sequence (P29376 whole entry, looked up): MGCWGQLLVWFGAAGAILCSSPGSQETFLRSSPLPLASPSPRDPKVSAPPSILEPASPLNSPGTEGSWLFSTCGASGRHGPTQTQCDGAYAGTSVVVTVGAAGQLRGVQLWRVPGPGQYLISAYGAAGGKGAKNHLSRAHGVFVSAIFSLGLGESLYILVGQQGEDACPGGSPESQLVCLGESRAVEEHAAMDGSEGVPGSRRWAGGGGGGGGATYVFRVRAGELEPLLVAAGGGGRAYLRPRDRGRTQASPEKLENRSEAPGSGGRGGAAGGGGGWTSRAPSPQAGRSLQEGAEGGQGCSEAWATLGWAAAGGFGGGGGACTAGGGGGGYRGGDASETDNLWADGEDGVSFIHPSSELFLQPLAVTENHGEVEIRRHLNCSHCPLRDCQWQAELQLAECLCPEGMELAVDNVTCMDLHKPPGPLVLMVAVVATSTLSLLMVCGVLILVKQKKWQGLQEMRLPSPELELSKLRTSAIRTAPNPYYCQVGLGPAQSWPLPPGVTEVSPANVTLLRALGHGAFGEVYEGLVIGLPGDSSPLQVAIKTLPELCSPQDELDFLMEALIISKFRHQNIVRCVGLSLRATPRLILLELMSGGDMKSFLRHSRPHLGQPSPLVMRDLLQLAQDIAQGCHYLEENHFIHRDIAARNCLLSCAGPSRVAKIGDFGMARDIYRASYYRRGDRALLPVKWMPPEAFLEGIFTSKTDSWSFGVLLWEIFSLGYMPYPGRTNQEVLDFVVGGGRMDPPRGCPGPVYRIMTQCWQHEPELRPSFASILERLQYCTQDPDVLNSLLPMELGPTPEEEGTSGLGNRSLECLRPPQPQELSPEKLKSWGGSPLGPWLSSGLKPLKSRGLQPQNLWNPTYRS
MAPK11 (human), sequence (Q15759 whole entry, looked up): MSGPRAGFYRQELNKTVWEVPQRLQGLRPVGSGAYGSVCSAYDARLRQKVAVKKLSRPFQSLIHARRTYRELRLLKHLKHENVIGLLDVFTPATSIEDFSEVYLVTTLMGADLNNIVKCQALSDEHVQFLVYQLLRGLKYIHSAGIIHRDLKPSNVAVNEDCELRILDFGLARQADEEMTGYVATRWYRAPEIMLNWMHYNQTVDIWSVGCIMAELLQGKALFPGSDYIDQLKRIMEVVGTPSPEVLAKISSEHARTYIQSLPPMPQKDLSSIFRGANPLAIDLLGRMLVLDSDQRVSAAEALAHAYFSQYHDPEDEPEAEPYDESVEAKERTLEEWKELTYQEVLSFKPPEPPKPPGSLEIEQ
TYK2 JH2 pseudokinase (human), sequence (P29597 whole entry, looked up): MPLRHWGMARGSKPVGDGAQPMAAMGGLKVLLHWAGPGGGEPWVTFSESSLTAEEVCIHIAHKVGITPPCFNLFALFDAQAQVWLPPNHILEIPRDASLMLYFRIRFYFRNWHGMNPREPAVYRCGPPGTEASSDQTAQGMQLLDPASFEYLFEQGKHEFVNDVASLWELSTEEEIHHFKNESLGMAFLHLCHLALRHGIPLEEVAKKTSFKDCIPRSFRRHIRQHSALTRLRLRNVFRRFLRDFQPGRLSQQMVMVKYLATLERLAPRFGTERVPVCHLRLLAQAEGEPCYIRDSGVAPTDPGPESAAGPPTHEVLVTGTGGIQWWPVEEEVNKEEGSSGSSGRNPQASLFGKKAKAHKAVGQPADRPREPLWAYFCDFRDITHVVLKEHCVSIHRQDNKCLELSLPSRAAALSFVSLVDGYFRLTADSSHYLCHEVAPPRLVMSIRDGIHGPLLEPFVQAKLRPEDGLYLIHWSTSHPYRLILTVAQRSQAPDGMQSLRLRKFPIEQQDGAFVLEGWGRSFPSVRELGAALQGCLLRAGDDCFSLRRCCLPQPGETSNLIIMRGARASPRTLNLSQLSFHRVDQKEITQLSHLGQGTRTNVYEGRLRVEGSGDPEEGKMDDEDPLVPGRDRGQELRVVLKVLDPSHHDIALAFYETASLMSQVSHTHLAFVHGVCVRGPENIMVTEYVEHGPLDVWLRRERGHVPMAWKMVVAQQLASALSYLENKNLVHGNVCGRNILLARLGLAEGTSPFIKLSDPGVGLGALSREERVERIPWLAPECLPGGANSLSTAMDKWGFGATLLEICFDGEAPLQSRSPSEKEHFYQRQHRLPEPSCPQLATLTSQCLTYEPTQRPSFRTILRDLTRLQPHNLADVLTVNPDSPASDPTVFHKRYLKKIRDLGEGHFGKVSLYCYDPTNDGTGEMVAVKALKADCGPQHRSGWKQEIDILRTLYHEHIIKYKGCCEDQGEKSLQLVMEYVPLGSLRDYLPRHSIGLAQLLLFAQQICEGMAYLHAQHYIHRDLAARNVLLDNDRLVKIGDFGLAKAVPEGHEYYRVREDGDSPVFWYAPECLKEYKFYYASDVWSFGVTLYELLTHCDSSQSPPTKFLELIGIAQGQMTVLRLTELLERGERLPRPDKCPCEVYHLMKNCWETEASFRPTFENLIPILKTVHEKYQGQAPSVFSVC
ACVR1B (human), sequence (P36896 whole entry, looked up): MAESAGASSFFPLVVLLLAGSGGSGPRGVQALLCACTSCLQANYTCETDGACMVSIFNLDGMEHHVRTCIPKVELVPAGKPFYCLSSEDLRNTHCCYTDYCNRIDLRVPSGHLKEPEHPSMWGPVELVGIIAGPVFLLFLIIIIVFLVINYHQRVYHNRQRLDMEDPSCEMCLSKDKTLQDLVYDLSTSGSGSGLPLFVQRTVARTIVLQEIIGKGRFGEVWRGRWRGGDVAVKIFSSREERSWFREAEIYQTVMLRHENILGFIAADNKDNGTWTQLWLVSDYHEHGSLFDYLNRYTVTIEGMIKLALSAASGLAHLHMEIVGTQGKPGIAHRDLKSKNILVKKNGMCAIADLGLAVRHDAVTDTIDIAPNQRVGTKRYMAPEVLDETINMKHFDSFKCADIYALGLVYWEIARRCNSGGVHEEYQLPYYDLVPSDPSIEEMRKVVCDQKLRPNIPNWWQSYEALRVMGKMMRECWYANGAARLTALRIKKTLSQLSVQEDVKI
FYN (human), sequence (P06241 whole entry, looked up): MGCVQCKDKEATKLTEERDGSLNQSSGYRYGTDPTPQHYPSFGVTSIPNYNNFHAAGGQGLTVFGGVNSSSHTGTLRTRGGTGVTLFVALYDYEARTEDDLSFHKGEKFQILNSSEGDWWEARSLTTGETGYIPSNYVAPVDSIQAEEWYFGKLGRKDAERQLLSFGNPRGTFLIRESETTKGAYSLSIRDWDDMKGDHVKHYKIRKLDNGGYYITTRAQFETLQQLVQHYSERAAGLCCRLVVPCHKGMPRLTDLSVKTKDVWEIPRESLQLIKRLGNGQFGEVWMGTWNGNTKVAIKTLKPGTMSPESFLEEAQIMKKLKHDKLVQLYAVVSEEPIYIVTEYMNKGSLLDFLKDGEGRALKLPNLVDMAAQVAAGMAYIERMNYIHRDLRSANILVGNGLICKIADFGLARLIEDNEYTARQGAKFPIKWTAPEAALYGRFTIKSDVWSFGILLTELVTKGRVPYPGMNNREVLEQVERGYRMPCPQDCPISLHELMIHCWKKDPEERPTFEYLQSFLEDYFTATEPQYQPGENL

Row | SMILES | kinase still bound, per cent of control (GSK3A (human)) | kinase still bound, per cent of control (SRPK2 (human)) | kinase still bound, per cent of control (YES1 (human)) | kinase still bound, per cent of control (MAPK9 (human)) | kinase still bound, per cent of control (NEK5 (human)) | kinase still bound, per cent of control (CAMKK2 (human)) | kinase still bound, per cent of control (MAP2K3 (human)) | kinase still bound, per cent of control (EPHA4 (human)) | kinase still bound, per cent of control (CHUK (human)) | kinase still bound, per cent of control (EPHA2 (human)) | kinase still bound, per cent of control [1] | kinase still bound, per cent of control (MARK2 (human)) | kinase still bound, per cent of control (ACVR1B (human)) | kinase still bound, per cent of control (MAP3K5 (human)) | kinase still bound, per cent of control (MAP3K3 (human)) | kinase still bound, per cent of control (CHEK2 (human)) | kinase still bound, per cent of control (ACVR2B (human)) | kinase still bound, per cent of control (PIP5K1A (human)) | kinase still bound, per cent of control (LTK (human)) | kinase still bound, per cent of control (STK36 (human)) | other results
1 | COc1cc(C(=O)NC2CCN(C)CC2)ccc1Nc1ncc2c(n1)N(C1CCCC1)CCC(=O)N2C(C)C | 100% | 100% | 100% | 100% | 100% | 100% | 100% | 100% | 100% | 100% | 100% | 100% | 100% | 100% | 100% | 100% | 100% | 6.4% | 100% | 100% | kinase still bound, per cent of control (SIK1 (human)): 100%; kinase still bound, per cent of control (MAPK11 (human)): 100%; kinase still bound, per cent of control (STK17B (human)): 100%; kinase still bound, per cent of control (MAP2K1 (human)): 100%; kinase still bound, per cent of control (SYK (human)): 100%; kinase still bound, per cent of control (SGK110 (human)): 100%; kinase still bound, per cent of control (ROCK2 (human)): 100%; kinase still bound, per cent of control (PRKX (human)): 100%; kinase still bound, per cent of control (RPS6KA5 KD1 (human)): 100%; kinase still bound, per cent of control (FYN (human)): 100%; kinase still bound, per cent of control (PAK2 (human)): 100%; kinase still bound, per cent of control (CDK19 (human)): 100%; kinase still bound, per cent of control (PRKD2 (human)): 100%; kinase still bound, per cent of control (CLK2 (human)): 100%; kinase still bound, per cent of control (IKBKE (human)): 100%; kinase still bound, per cent of control (MAPK3 (human)): 100%; kinase still bound, per cent of control (CDK3 (human)): 100%; kinase still bound, per cent of control (KDR (human)): 100%; kinase still bound, per cent of control (TESK1 (human)): 100%; kinase still bound, per cent of control (ALK (human)): 100%
2 | Cc1cc([C@@H](C)Nc2ccccc2C(=O)O)c2nc(N3CCOCC3)cc(=O)n2c1 | 100% | 85% | 100% | 66% | 100% | 100% | 100% | 93% | 100% | 70% | 100% | 90% | 93% | 100% | 87% | 100% | 100% | 100% | 95% | 100% | kinase still bound, per cent of control (SIK1 (human)): 100%; kinase still bound, per cent of control (MAPK11 (human)): 91%; kinase still bound, per cent of control (STK17B (human)): 100%; kinase still bound, per cent of control (MAP2K1 (human)): 89%; kinase still bound, per cent of control (SYK (human)): 100%; kinase still bound, per cent of control (SGK110 (human)): 100%; kinase still bound, per cent of control (ROCK2 (human)): 91%; kinase still bound, per cent of control (PRKX (human)): 91%; kinase still bound, per cent of control (RPS6KA5 KD1 (human)): 81%; kinase still bound, per cent of control (FYN (human)): 100%; kinase still bound, per cent of control (PAK2 (human)): 100%; kinase still bound, per cent of control (CDK19 (human)): 91%; kinase still bound, per cent of control (PRKD2 (human)): 100%; kinase still bound, per cent of control (CLK2 (human)): 70%; kinase still bound, per cent of control (IKBKE (human)): 85%; kinase still bound, per cent of control (MAPK3 (human)): 95%; kinase still bound, per cent of control (CDK3 (human)): 100%; kinase still bound, per cent of control (KDR (human)): 100%; kinase still bound, per cent of control (TESK1 (human)): 100%; kinase still bound, per cent of control (ALK (human)): 100%
